The record followed here is patent publication EP1339694B1 (F. HOFFMANN-LA ROCHE AG, priority 2000, dated 2002).

T1 sequence (P43119 whole entry): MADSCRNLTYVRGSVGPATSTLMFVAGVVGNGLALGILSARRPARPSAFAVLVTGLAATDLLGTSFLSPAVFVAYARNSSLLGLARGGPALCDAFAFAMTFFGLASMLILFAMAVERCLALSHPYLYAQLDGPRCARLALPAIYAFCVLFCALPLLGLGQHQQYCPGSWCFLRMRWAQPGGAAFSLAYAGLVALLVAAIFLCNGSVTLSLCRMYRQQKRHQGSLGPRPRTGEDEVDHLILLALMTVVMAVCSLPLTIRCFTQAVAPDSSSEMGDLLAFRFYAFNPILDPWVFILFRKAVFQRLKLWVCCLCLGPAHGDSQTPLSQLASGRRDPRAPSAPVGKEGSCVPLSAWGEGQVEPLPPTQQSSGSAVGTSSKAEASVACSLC

The first experiment addresses T1, Human Platelet IP Receptor (Homo sapiens, UniProt P43119).
T1 construct: 250 ml Platelet Rich Plasma was transferred into 250 ml centrifuge tubes and spun at 6000 g; from tissue; host or cells: membranes prepared from platelets (platelet rich plasma)
Put plainly: In vitro Human Platelet IP Receptor Radioligand Binding Assay.
Details: not given
Here is the method:
In vitro Human Platelet IP Receptor Radioligand Binding Assay
The in vitro Human Platelet IP Receptor Binding Assay measures the strength of a potential drug's binding affinity to its intended target.
The following buffers were prepared using the purest available water.
250 ml Platelet Rich Plasma was transferred into 250 ml centrifuge tubes and spun at 6000 g for 10 min at 20 °C. Pellets were then resuspended in IP lysis buffer and homogenized using a polytron(setting 7, 1x20 sec. burst), brought up to a final volume of 180 ml and centrifuged at 40000 g for 15 min at 4 °C. The pellets were then resuspended in IP assay buffer, protein density determined by BCA method (Pierce) and stored in 2.0 ml vials at -80 °C for subsequent assay use.
To obtain at least 80 % specific binding, 50 µg protein/assay tube was used in a competition experiment. The final radioligand concentration was 1 to 3E-8 M.
The membranes were thawed at room temperature and then diluted in assay buffer to the appropriate concentration. First buffer, drug, radioligand, and lastly, membranes were added to the assay tubes. […] The assay tubes were filtered onto 0.3% PEI pre-treated glass fiber filtermats (GF/ B) using Packard Top Count 96 well cell harvester. The tubes were rinsed three times with ice cold 20mM Tris-HCl, 5mM MgCl2, pH=7.4 (3 x 0.5 ml/sample). Bound radioactivity was determined using liquid scintillation counting.
`O=C(CCc1ccc(NC2=NCCN2)cc1)c1ccc(N2CCOCC2)cc1` [Example 3, 3-[4-(4,5-Dihydro-1H-imidazol-2-ylamino)phenyl]-1-(4-morpholin-4-ylphenyl)-propan-1-one] gave a Ki of 5.25 nM.

For `O=C(CCc1ccc(NC2=NCCN2)cc1)c1ccc(N2CCN(C(=O)c3ccco3)CC2)cc1`, the Ki was 0.468 nM.

The same experiment, now with this note: human platelet membranes, radioligand competition, 25 °C for 60 min; read-out: Affinity towards the Human Platelet IP Receptor (pKi) (converted).
On to `CCOC(=O)N1CCN(c2ccc(C(=O)CCc3ccc(NC4=NCCN4)cc3)cc2)CC1` [Example 5, 3-[4-(4,5-Dihydro-1H-imidazol-2-ylamino)phenyl]-1-[4-(4-ethoxycarbonyl-piperazin-1-yl)-phenyl]propan-1-one], for which the Ki is 9.33 nM.

For the compound `O=C(CCc1ccc(NC2=NCCN2)cc1)c1ccc2ccccc2c1` [3-[4-(4,5-dihydro-1H-imidazol-2-ylamino)phenyl]-1-(naphthalen-2-yl)propan-1-one], the Ki was 4.9 nM.

With `O=C(CCc1ccc(NC2=NCCN2)cc1)c1ccc(OCc2ccccc2)cc1` [3-[4-(4,5-dihydro-1H-imidazol-2-ylamino)phenyl]-1-(4-benzyloxyphenyl)-propan-1-one], the Ki is 11.2 nM.

Take `O=C(CCc1ccc(NC2=NCCN2)cc1)c1ccccc1F` [3-[4-(4,5-dihydro-1H-imidazol-2-ylamino)phenyl]-1-(2-fluorophenyl)propan-1-one]: the Ki was 0.447 nM.

On to `O=C(CCc1ccc(NC2=NCCN2)cc1)c1ccc(-c2ccccc2)cc1` [3-[4-(4,5-dihydro-1H-imidazol-2-ylamino)phenyl]-1-(4-phenylphenyl)-propan-1-one], for which the Ki is 1.48 nM.

Consider `O=C(COc1ccc(NC2=NCCN2)cc1)c1ccc2c(c1)OCCO2` [Example 9, 1-(2,3-Dihydrobenzo[1,4]dioxin-6-yl)-2-[4-(4,5-dihydro-1H-imidazol-2-ylamino)-phenoxy] ethanone], for which the Ki is 44.7 nM.

As for `O=C(CCc1ccc(NC2=NCCN2)cc1)c1ccc(F)cc1F` [1-(2,4-difluorophenyl)-3-[4-(4,5-dihydro-1H-imidazol-2-ylamino)phenyl]-propan-1-one], the Ki is 56.2 nM.

As for `CCNC(=O)N1CCN(c2ccc(C(=O)CCc3ccc(NC4=NCCN4)cc3)cc2)CC1` [3-[4-(4,5-dihydro-1H-imidazol-2-ylamino)phenyl]-1-[4-(4-ethylamino-carbonyl-piperazin-1-yl)phenyl]propan-1-one], the Ki is 38.9 nM.

Take `CCCOC(=O)N1CCN(c2ccc(C(=O)CCc3ccc(NC4=NCCN4)cc3)cc2)CC1` [3-[4-(4,5-dihydro-1H-imidazol-2-ylamino)phenyl]-1-[4-(4-propoxycarbonyl-piperazin-1-yl)phenyl]propan-1-one]: the Ki is 58.9 nM.

Take `O=C(CCc1ccc(NC2=NCCN2)cc1)c1ccc(F)c(F)c1` [1-(3,4-difluorophenyl)-3-[4-(4,5-dihydro-1H-imidazol-2-ylamino)phenyl]-propan-1-one]: the Ki is 22.4 nM.

Take `O=C(CCc1ccc(NC2=NCCN2)cc1)c1ccccc1` [3-[4-(4,5-dihydro-1H-imidazol-2-ylamino)phenyl]-1-(phenyl)propan-1-one]: the Ki was 3.16 nM.

For the compound `O=C(CCc1ccc(NC2=NCCN2)cc1)c1ccc(Cl)c(Cl)c1` [1-(3,4-dichlorophenyl)-3-[4-(4,5-dihydro-1H-imidazol-2-ylamino)phenyl]-propan-1-one], the Ki was 9.55 nM.

As to `O=C(CCc1ccc(NC2=NCCN2)cc1)c1cc(F)cc(F)c1` [1-(3,5-difluorophenyl)-3-[4-(4,5-dihydro-1H-imidazol-2-ylamino)phenyl]-propan-1-one], the Ki was 0.741 nM.

Take `CN1CCN(c2ccc(C(=O)CCc3ccc(NC4=NCCN4)cc3)cc2)CC1` [3-[4-(4,5-dihydro-1H-imidazol-2-ylamino)phenyl]-1-[4-(4-methylpiperazin-1-yl)-phenyl]propan-1-one]: the Ki is 7.08 nM.

Take `O=C(CCc1ccc(NC2=NCCN2)cc1)c1ccc(F)cc1` [Example 1, 3-[4-(4,5-Dihydro-1H-imidazol-2-ylamino)phenyl]-1-(4-fluorophenyl)propan-1-one]: the Ki is 0.316 nM.

Consider `COc1ccc2cc(C(=O)CCc3ccc(NC4=NCCN4)cc3)ccc2c1` [3-[4-(4,5-dihydro-1H-imidazol-2-ylamino)phenyl]-1-(6-methoxynaphthalen-2-yl)-propan-1-one], for which the Ki was 0.427 nM.

In the case of `O=C(CCc1ccc(NC2=NCCN2)cc1)c1cccc2ccccc12` [3-[4-(4,5-dihydro-1H-imidazol-2-ylamino)phenyl]-1-(naphthalen-1-yl)-propan-1-one], the Ki is 1.02 nM.

Consider `CC(C)Oc1ccc(C(=O)CCc2ccc(NC3=NCCN3)cc2)cc1` [3-[4-(4,5-dihydro-1H-imidazol-2-ylamino)phenyl]-1-(4-isopropoxyphenyl)-propan-1-one], for which the Ki was 0.437 nM.

For the compound `CC(=O)N1CCN(c2ccc(C(=O)CCc3ccc(NC4=NCCN4)cc3)cc2)CC1` [1-[4-(4-acetylpiperazin-1-yl)phenyl]-3-[4-(4,5-dihydro-1H-imidazol-2-ylamino)-phenyl]propan-1-one], the Ki is 6.31 nM.

For the compound `O=C(CCc1ccc(NC2=NCCN2)cc1)c1cc(F)c(Cl)cc1Cl` [1-(4,6-dichloro-3-fluorophenyl)-3-[4-(4,5-dihydro-1H-imidazol-2-ylamino)-phenyl]propan-1-one], the Ki is 0.708 nM.

Turning to `COc1ccc(C(=O)COc2ccc(NC3=NCCN3)cc2)cc1` [Example 10, 2-[4-(4,5-Dihydro-1H-imidazol-2-ylamino)phenoxy]-1-(4-methoxyphenyl)ethanone], the Ki was 2.75 nM.

For the compound `O=C(CCc1ccc(NC2=NCCN2)cc1)c1ccc(Oc2ccccc2)cc1`, the Ki was 20 nM.

Consider `CCOC(=O)N1CCN(c2ccc(C(=O)CCc3ccc(NC4=NCCN4)cc3)c(F)c2)CC1` [3-[4-(4,5-dihydro-1H-imidazol-2-ylamino)phenyl]-1-[4-(4-ethoxycarbonyl-piperazin-1-yl)-2-fluorophenyl]propan-1-one], for which the Ki was 67.6 nM.

For `O=C(CCc1ccc(NC2=NCCN2)cc1)c1ccc(Cl)cc1` [1-(4-chlorophenyl)-3-[4-(4,5-dihydro-1H-imidazol-2-ylamino)phenyl]-propan-1-one], the Ki is 0.398 nM.

In the case of `O=C(CCc1ccc(NC2=NCCN2)cc1)c1ccc(N2CCOCC2)cc1F` [Example 4, 3-[4-(4,5-Dihydro-1H-imidazol-2-ylamino)phenyl]-1-(2-fluoro-4-morpholin-4-yl-phenyl)propan-1-one], the Ki is 18.2 nM.

`CS(=O)(=O)N1CCN(c2ccc(C(=O)CCc3ccc(NC4=NCCN4)cc3)cc2)CC1` [Example 6, 3-[4-(4,5-Dihydro-1H-imidazol-2-ylamino)phenyl]-1-[4-(4-methanesulfonyl-piperazin-1-yl)phenyl]propan-1-one]: the Ki was 28.2 nM.

Take `O=C(CCc1ccc(NC2=NCCN2)cc1)c1ccc(Cl)cc1Cl` [1-(2,4-dichlorophenyl)-3-[4-(4,5-dihydro-1H-imidazol-2-ylamino)phenyl]-propan-1-one]: the Ki was 0.282 nM.

Regarding `COc1ccc(C(=O)CCc2ccc(NC3=NCCN3)cc2)c(F)c1` [3-[4-(4,5-dihydro-1H-imidazol-2-ylamino)phenyl]-1-(2-fluoro-4-methoxy-phenyl)-propan-1-one], the Ki is 1 nM.

Take `O=C(CCc1ccc(NC2=NCCN2)cc1)c1ccc(Cl)c(Cl)c1Cl` [3-[4-(4,5-dihydro-1H-imidazol-2-ylamino)phenyl]-1-(2,3,4-trichlorophenyl)-propan-1-one]: the Ki was 1.74 nM.

As to `O=C(CCc1ccc(NC2=NCCN2)cc1)c1cccc(F)c1` [3-[4-(4,5-dihydro-1H-imidazol-2-ylamino)phenyl]-1-(3-fluorophenyl)propan-1-one], the Ki is 0.676 nM.

For the compound `O=C(CCCc1ccc(NC2=NCCN2)cc1)c1ccc(F)cc1` [Example 8, 4-[4-(4,5-Dihydro-1H-imidazol-2-ylamino)phenyl]-1-(4-fluorophenyl)butan-1-one], the Ki was 3.09 nM.
